Biological target: T1, McjD (Escherichia coli, UniProt Q9X2W0)
T1 construct: reconstituted in E. coli polar lipid proteoliposomes for transport; plasmid-encoded mcjABCD operon
Assay: ATP-dependent Hoechst fluorescence uptake in proteoliposomes
Assay type: biochemical
Conditions: 0.1 μM Hoechst, 50 mM Tris pH 8, 50 mM KCl, E. coli polar lipids

T1 sequence (Q9X2W0 whole entry): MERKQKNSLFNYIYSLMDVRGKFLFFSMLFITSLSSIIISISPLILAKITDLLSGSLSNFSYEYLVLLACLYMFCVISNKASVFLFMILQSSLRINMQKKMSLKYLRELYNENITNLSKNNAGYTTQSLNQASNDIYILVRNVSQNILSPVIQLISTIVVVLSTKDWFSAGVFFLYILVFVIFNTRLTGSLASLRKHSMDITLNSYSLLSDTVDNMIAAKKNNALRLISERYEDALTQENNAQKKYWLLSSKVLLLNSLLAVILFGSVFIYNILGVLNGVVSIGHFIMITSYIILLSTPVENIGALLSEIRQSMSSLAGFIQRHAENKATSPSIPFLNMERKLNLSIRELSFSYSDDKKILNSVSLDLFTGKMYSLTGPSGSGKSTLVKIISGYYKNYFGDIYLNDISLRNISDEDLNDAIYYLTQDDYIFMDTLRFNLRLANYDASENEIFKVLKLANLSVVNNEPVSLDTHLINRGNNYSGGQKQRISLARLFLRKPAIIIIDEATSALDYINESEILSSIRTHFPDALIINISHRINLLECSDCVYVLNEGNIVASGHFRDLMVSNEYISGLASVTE

SMILES: CCOc1ccc(-c2nc3ccc(-c4nc5ccc(N6CCN(C)CC6)cc5[nH]4)cc3[nH]2)cc1 [Hoechst 33342]
- ATP-dependent Hoechst fluorescence uptake in proteoliposomes: McjD mediates the ATP‐dependent uptake of Hoechst in proteoliposomes (black line)

Source: paper PMC5641919, “Structural basis for antibacterial peptide self‐immunity by the bacterial ABC transporter McjD” (The EMBO Journal, 2017)
